Reference: ChEMBL document CHEMBL1201862, “PubChem BioAssay data set” (2004)
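How tested: cells in 96-well plates exposed to compound for 48 hours at five concentrations. GI50 marks 50% less growth.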 The source made the active and inactive calls. No stated cut-off is given here; in the data, active = GI50 up to about 1.1 µM and inactive = higher.

Assays:
Assay in all cases: NCI tumour cell line growth inhibition, 48 h
SK-MEL-5 = system: SK-MEL-5
SNB-75 = system: SNB-75
MDA-MB-435 = system: MDA-MB-435
MOLT-4 = system: MOLT-4
PC-3 = system: PC-3
K562 = system: K562
OVCAR-8 = system: OVCAR-8
HOP-92 = system: HOP-92
786-0 = system: 786-0
SR = system: SR
LOX IMVI = system: LOX IMVI
NCI-H460 = system: NCI-H460
OVCAR-5 = system: OVCAR-5
TK-10 = system: TK-10
EKVX = system: EKVX
M14 = system: M14
HCT-15 = system: HCT-15
A498 = system: A498
SN12C = system: SN12C
MDA-MB-231 = system: MDA-MB-231

Row | Compound | GI50 (SK-MEL-5) | GI50 (SNB-75) | GI50 (MDA-MB-435) | GI50 (MOLT-4) | GI50 (PC-3) | GI50 (K562) | GI50 (OVCAR-8) | GI50 (HOP-92) | GI50 (786-0) | GI50 (SR) | GI50 (LOX IMVI) | GI50 (NCI-H460) | GI50 (OVCAR-5) | GI50 (TK-10) | GI50 (EKVX) | GI50 (M14) | GI50 (HCT-15) | GI50 (A498) | GI50 (SN12C) | GI50 (MDA-MB-231)
1 | O=C1NC(NCc2ccc(F)cc2)=N/C1=C\c1ccccc1Cl | 13.4 µM (inactive) | 7.4 µM (inactive) | 17.9 µM (inactive) | 12.9 µM (inactive) | 15.9 µM (inactive) | 11.9 µM (inactive) | 14.4 µM (inactive) | 6.97 µM (inactive) | 11.2 µM (inactive) | 14.1 µM (inactive) | 14.7 µM (inactive) | 25 µM (inactive) | 16.8 µM (inactive) | 21.5 µM (inactive) | 19.8 µM (inactive) | 15.6 µM (inactive) | 19.1 µM | 16.8 µM (inactive) | 14.8 µM (inactive) | 17.8 µM (inactive)
2 | O=[N+]([O-])C(=C1Nc2ccccc2N1)C(Cl)=C(Cl)Cl | > 100 µM (inactive) | < 0.01 µM (active) | 88.1 µM (inactive) | 19.8 µM (inactive) | > 100 µM (inactive) | 81.7 µM (inactive) | 74.5 µM (inactive) | > 100 µM (inactive) | 63.4 µM (inactive) | 51.3 µM (inactive) | > 100 µM (inactive) | > 100 µM (inactive) | > 100 µM (inactive) | > 100 µM (inactive) | > 100 µM (inactive) | 62.5 µM (inactive) | 38.2 µM | > 100 µM (inactive) | > 100 µM (inactive) | 24.8 µM (inactive)
3 | COC(=O)N1C[C@@]2(C=CC3(CC2)OCCO3)c2ccccc21 | 81.7 µM (inactive) | 53.6 µM (inactive) | 23.7 µM (inactive) | 58.3 µM (inactive) | 63.7 µM (inactive) | 48 µM (inactive) | 39.5 µM (inactive) | 44.1 µM (inactive) | > 100 µM (inactive) | 49.7 µM (inactive) | > 100 µM (inactive) | 90.4 µM (inactive) | > 100 µM (inactive) | > 100 µM (inactive) | 62.1 µM (inactive) | > 100 µM (inactive) | 57.3 µM | > 100 µM (inactive) | > 100 µM (inactive) | > 100 µM (inactive)
4 | CC(C)=CCC[C@@H](C)C1=C(O)C(=O)C(C)=C(Nc2ccccc2)C1=O | 17.6 µM (inactive) | 31.5 µM (inactive) | 27.7 µM (inactive) | 6.82 µM (inactive) | 23.9 µM (inactive) | 13.2 µM (inactive) | 9.18 µM (inactive) | 23.5 µM (inactive) | 25.3 µM (inactive) | 28 µM (inactive) | 20.6 µM (inactive) | 13.3 µM (inactive) | 52.4 µM (inactive) | 29 µM (inactive) | 24.2 µM (inactive) | 14.9 µM (inactive) | 7.5 µM | 20 µM (inactive) | 23.9 µM (inactive) | 22.5 µM (inactive)
5 | CS(=O)(=O)Nc1ccc2ccccc2c1 | > 100 µM (inactive) | > 100 µM (inactive) | > 100 µM (inactive) | > 100 µM (inactive) | > 100 µM (inactive) | > 100 µM (inactive) | > 100 µM (inactive) | 87.7 µM (inactive) | > 100 µM (inactive) | > 100 µM (inactive) | > 100 µM (inactive) | > 100 µM (inactive) | > 100 µM (inactive) | > 100 µM (inactive) | 57.3 µM (inactive) | > 100 µM (inactive) | > 100 µM | > 100 µM (inactive) | > 100 µM (inactive) | > 100 µM (inactive)
6 | COC(=O)Nc1nc2cc(S(=O)(=O)Nc3ccccn3)ccc2[nH]1 | 42.1 µM (inactive) | 22.6 µM (inactive) | 14.1 µM (inactive) | 25.5 µM (inactive) | 65.8 µM (inactive) | 25.7 µM (inactive) | 46.5 µM (inactive) | 30.5 µM (inactive) | 49.8 µM (inactive) | 21.1 µM (inactive) | 51.8 µM (inactive) | 34.6 µM (inactive) | > 100 µM (inactive) | 33.3 µM (inactive) | > 100 µM (inactive) | 78.9 µM (inactive) | 19.8 µM | 61.1 µM (inactive) | 92 µM (inactive) | > 100 µM (inactive)
7 | Cn1c(=O)c2nc(SCCN3CCOCC3)[nH]c2n(C)c1=S | > 100 µM (inactive) | > 100 µM (inactive) | > 100 µM (inactive) | > 100 µM (inactive) | > 100 µM (inactive) | > 100 µM (inactive) | > 100 µM (inactive) | > 100 µM (inactive) | > 100 µM (inactive) | > 100 µM (inactive) | > 100 µM (inactive) | > 100 µM (inactive) | > 100 µM (inactive) | > 100 µM (inactive) | > 100 µM (inactive) | > 100 µM (inactive) | > 100 µM | > 100 µM (inactive) | > 100 µM (inactive) | > 100 µM (inactive)
8 | CCOC(=O)CCC(NC(=O)OCc1ccccc1)C(=O)NNC(=O)OC(C)(C)C (stereo not given) | > 100 µM (inactive) | > 100 µM (inactive) | > 100 µM (inactive) | > 100 µM (inactive) | > 100 µM (inactive) | > 100 µM (inactive) | > 100 µM (inactive) | > 100 µM (inactive) | > 100 µM (inactive) | > 100 µM (inactive) | > 100 µM (inactive) | > 100 µM (inactive) | > 100 µM (inactive) | > 100 µM (inactive) | > 100 µM (inactive) | > 100 µM (inactive) | > 100 µM | > 100 µM (inactive) | > 100 µM (inactive) | 41.7 µM (inactive)
9 | CCOc1ccccc1/N=C\c1c2ccccc2cc2ccccc12 | 25.6 µM (inactive) | 19.5 µM (inactive) | 22.7 µM (inactive) | 11.6 µM (inactive) | 23.3 µM (inactive) | 17.3 µM (inactive) | 23.8 µM (inactive) | 21 µM (inactive) | 18.8 µM (inactive) | 15.2 µM (inactive) | 19.1 µM (inactive) | 29.9 µM (inactive) | 25.8 µM (inactive) | 25 µM (inactive) | 18.1 µM (inactive) | 20.3 µM (inactive) | 24.4 µM | 27 µM (inactive) | 22.4 µM (inactive) | 27.2 µM (inactive)
10 | CC1=NN(c2ccc(S(=O)(=O)O)cc2)C2(C1)C(Cl)C(=O)N2c1nc2ccccc2s1 (stereo not given) | > 100 µM (inactive) | > 100 µM (inactive) | > 100 µM (inactive) | > 100 µM (inactive) | > 100 µM (inactive) | > 100 µM (inactive) | > 100 µM (inactive) | > 100 µM (inactive) | > 100 µM (inactive) | > 100 µM (inactive) | 57.8 µM (inactive) | > 100 µM (inactive) | > 100 µM (inactive) | > 100 µM (inactive) | 55.7 µM (inactive) | > 100 µM (inactive) | > 100 µM | > 100 µM (inactive) | > 100 µM (inactive) | > 100 µM (inactive)
